According to publication PMC7822874, “Chemoprotective antimalarials identified through quantitative high-throughput screening of Plasmodium blood and liver stage parasites” (Scientific Reports, 2021):
Like-named read-outs stand apart in the source and are kept apart here.

What was measured:
[1] = test system: Plasmodium falciparum Dd2 asexual blood stage parasites; experiment: microbe, parasite or virus in culture; parameters: species or system Plasmodium falciparum Dd2 in human erythrocytes; single determination (one 11-point concentration-response curve); conditions: Plasmodium falciparum, DD2, Erythrocyte, 72 h
in vitro = conditions: human
[2] = HepG2-A16-CD81EGFP cells, uninfected

O=C1C2=C(Nc3ccccc3SC2c2ccco2)c2ccccc21 (centres unmarked) [MLS000108310-01]
AC50 ([1]; read-out: AC50): 4730 nM | viability at 48 h, 1 µM (in vitro; [2]): 110% | viability at 48 h, 3 µM (in vitro; [2]): 99%

COc1ccc(CNCC(O)(c2ccc(Cl)cc2)c2ccc(Cl)cc2)cc1 [MLS000325709-01]
AC50 ([1]; read-out: AC50): 1500 nM | viability at 48 h, 1 µM (in vitro; [2]): 98% | viability at 48 h, 3 µM (in vitro; [2]): 96%

CCC(=O)N(C1=C(NC(C)C)C(=O)c2ccccc2C1=O)C(C)C [MLS000696323-01]
AC50 ([1]; read-out: AC50): 2370 nM | viability at 48 h, 1 µM (in vitro; [2]): 106% | viability at 48 h, 3 µM (in vitro; [2]): 105%

Cc1ccc(Cl)cc1N1CCN(Cc2cc3c(cc2O)CCC3)CC1 [MLS000572148-01]
AC50 ([1]; read-out: AC50): 188 nM | viability at 48 h, 1 µM (in vitro; [2]): 103% | viability at 48 h, 3 µM (in vitro; [2]): 99%

CCCc1cc(=O)oc2cc(C)cc(OCC(=O)Nc3cccnc3)c12 [MLS001160340-01]
AC50 ([1]; read-out: AC50): 531 nM | viability at 48 h, 1 µM (in vitro; [2]): 106% | viability at 48 h, 3 µM (in vitro; [2]): 99%

CCOC(=O)c1c(CN(C)C)n(-c2ccc(C)cc2)c2cc(Br)c(O)cc12 [MLS000705141-01]
AC50 ([1]; read-out: AC50): 4220 nM | viability at 48 h, 1 µM (in vitro; [2]): 101% | viability at 48 h, 3 µM (in vitro; [2]): 101%

COc1ccc(C2c3[nH]c4ccccc4c3C[C@H]3C(=O)N(C4CCN(Cc5ccccc5)CC4)CC(=O)N23)c(OC)c1 (some centres unmarked) [MLS001213218-01]
AC50 ([1]; read-out: AC50): 2370 nM | viability at 48 h, 1 µM (in vitro; [2]): 106% | viability at 48 h, 3 µM (in vitro; [2]): 102%

COc1ccc(C2C(C(=O)N3CCCCC3)CC(=O)N2c2ccc(OC)cc2)cc1 (centres unmarked) [MLS000519691-01]
AC50 ([1]; read-out: AC50): 7500 nM | viability at 48 h, 1 µM (in vitro; [2]): 85% | viability at 48 h, 3 µM (in vitro; [2]): 91%

Oc1ccccc1Nc1nc(-c2ccccc2O)nc2ccccc12 [MLS001164904-01]
AC50 ([1]; read-out: AC50): 944 nM | viability at 66 h (in vitro; [2]): 101%

CCc1cc2c(=O)c(-c3cnn(-c4ccccc4)c3)c(C)oc2c(CN2CCCCC2)c1O [MLS000530719-01]
AC50 ([1]; read-out: AC50): 1330 nM | viability at 48 h, 1 µM (in vitro; [2]): 105% | viability at 48 h, 3 µM (in vitro; [2]): 105%

O=C(CC[S+](=O)([O-])c1cc(Br)cc2c1N(C(=O)C1CC1)CC2)Nc1ccc(Br)cc1F [NCGC00107188-01]
AC50 [1]: 3350 nM | viability at 66 h (in vitro; [2]): 94%

O=S(=O)(c1ccc(Cl)cc1)N1CCN(C(S)=NCC2CCCO2)CC1 (centres unmarked) [MLS001124005-01]
AC50 ([1]; read-out: AC50): 1880 nM | viability at 48 h, 1 µM (in vitro; [2]): 85% | viability at 48 h, 3 µM (in vitro; [2]): 85%

Cc1c(C#N)c2ccccc2n1CCOc1ccccc1F [MLS000113080-01]
AC50 ([1]; read-out: AC50): 1680 nM | viability at 48 h, 1 µM (in vitro; [2]): 100% | viability at 48 h, 3 µM (in vitro; [2]): 97%

CC1(C)Cc2c(c(N3CCOCC3)nc3snc(Br)c23)CO1 [MLS000071231-01]
AC50 ([1]; read-out: AC50): 299 nM | viability at 48 h, 1 µM (in vitro; [2]): 87% | viability at 48 h, 3 µM (in vitro; [2]): 86%

Cn1nc(C(F)(F)F)c(-c2cccc(C(F)(F)F)c2)c1NC(=O)Nc1ccc(F)cc1 [MLS000830770-01]
AC50 ([1]; read-out: AC50): 2370 nM | viability at 48 h, 1 µM (in vitro; [2]): 98% | viability at 48 h, 3 µM (in vitro; [2]): 103%

COc1cc2c(cc1O)CC[n+]1cc3c(OC)c(OC)ccc3cc1-2 [MLS000563433-01]
AC50 ([1]; read-out: AC50): 7500 nM | viability at 66 h (in vitro; [2]): 97.8%

CN1C2CCC1/C(=C\c1ccccc1)C(=O)/C2=C\c1ccccc1 [MLS000551165-01]
AC50 ([1]; read-out: AC50): 2110 nM | viability at 66 h (in vitro): 95.8%

Nc1cc2ccncc2c2ccccc12 [MLS000766157-01]
AC50 ([1]; read-out: AC50): 266 nM | viability at 48 h, 1 µM (in vitro; [2]): 98% | viability at 48 h, 3 µM (in vitro; [2]): 92%

Cc1cc(C)cc(/N=C/c2[nH]c3ccc(Br)c(Cl)c3c2O)c1 [MLS000586008-01]
AC50 ([1]; read-out: AC50): 11900 nM | viability at 48 h, 1 µM (in vitro; [2]): 104% | viability at 48 h, 3 µM (in vitro; [2]): 99%

CC(C)(C)c1ccc(O)c(CN2CCN(c3ccccc3)CC2)c1 [MLS000084717-01]
AC50 [1]: 1500 nM | viability (in vitro): 98.2%

CCc1cccc(-n2c(=O)c3cccnc3n2CC(=O)NCc2ccc(C)cc2)c1 [NCGC00128446-01]
AC50 [1]: 1680 nM | viability (in vitro): 83.3%

O=C(Nc1c(C(=O)c2ccccc2)oc2ccccc12)c1cc(-c2ccccc2O)n[nH]1 [MLS000331861-01]
AC50 ([1]; read-out: AC50): 2110 nM | viability at 48 h, 1 µM (in vitro; [2]): 100% | viability at 48 h, 3 µM (in vitro; [2]): 99%

CCc1cccc2sc(N3CCN(C(=O)c4ccc([N+](=O)[O-])o4)CC3)nc12 [MLS001234237-01]
AC50 ([1]; read-out: AC50): 1060 nM | viability at 48 h, 1 µM (in vitro; [2]): 106% | viability at 48 h, 3 µM (in vitro; [2]): 115%

COc1cccc(N=C(S)N2CCN(S(=O)(=O)c3ccc(F)cc3)CC2)c1 [MLS001230093-01]
AC50 ([1]; read-out: AC50): 2660 nM | viability at 48 h, 1 µM (in vitro; [2]): 91% | viability at 48 h, 3 µM (in vitro; [2]): 89%

CCOc1cc(C(=O)N2CCC(CC3CC(c4cccc(Br)c4)=NO3)(C(=O)NCC3CCCCC3)CC2)cc(OCC)c1OCC (centres unmarked) [MLS001074456-01]
AC50 ([1]; read-out: AC50): 1680 nM | viability at 48 h, 1 µM (in vitro; [2]): 106% | viability at 48 h, 3 µM (in vitro; [2]): 103%

COc1ccc(CN2CCCC(C(=O)c3ccc(Cl)cc3)C2)c(O)c1 (centres unmarked) [MLS000998855-01]
AC50 ([1]; read-out: AC50): 531 nM | viability at 48 h, 1 µM (in vitro): 101% | viability at 48 h, 3 µM (in vitro): 103%

O=C(CC[S+](=O)([O-])c1cc(Br)cc2c1N(C(=O)C1CC1)CC2)Nc1ccc(C(F)(F)F)cc1 [NCGC00107224-01]
AC50 [1]: 1330 nM | viability at 66 h (in vitro; [2]): 97.7%

Oc1ccccc1CN1CCCC(N2CCN(c3cccc(C(F)(F)F)c3)CC2)C1 (centres unmarked) [MLS000998830-01]
AC50 ([1]; read-out: AC50): 1330 nM | viability at 48 h, 1 µM (in vitro; [2]): 103% | viability at 48 h, 3 µM (in vitro; [2]): 105%

CCCn1c2c(c(=N)c3c1CCC3)CCCC2 [MLS000702605-01]
AC50 ([1]; read-out: AC50): 10600 nM | viability at 66 h (in vitro; [2]): 93.8%

CC(C)Oc1ccc(CCc2nnc(S)n2Cc2ccccc2)cc1 [MLS000582839-01]
AC50 ([1]; read-out: AC50): 5310 nM | viability at 48 h, 1 µM (in vitro; [2]): 101% | viability at 48 h, 3 µM (in vitro; [2]): 103%

CC(C)Oc1ccc2c(c1)OC(c1ccccc1)(C(F)(F)F)NC2=O (centres unmarked) [MLS000392812-01]
AC50 ([1]; read-out: AC50): 2660 nM | viability at 48 h, 1 µM (in vitro; [2]): 105% | viability at 48 h, 3 µM (in vitro; [2]): 98%

CCN1CCN(Cc2ccc(NC(=O)c3ccc(C)c(NC(=O)C(=O)c4c[nH]c5ccccc45)c3)cc2C(F)(F)F)CC1 [MLS003105967-01]
AC50 ([1]; read-out: AC50): 1500 nM | viability at 66 h (in vitro; [2]): 106%

O=C(Nc1ccc(N2CCCCC2)c(Cl)c1)c1nnc[nH]1 [MLS000035389-01]
AC50 ([1]; read-out: AC50): 4730 nM | viability at 48 h, 1 µM (in vitro; [2]): 101% | viability at 48 h, 3 µM (in vitro; [2]): 99%

Oc1ccc(Cl)cc1CNCc1cccc2ccccc12 [MLS002207460-01]
AC50 ([1]; read-out: AC50): 841 nM | viability at 48 h, 1 µM (in vitro; [2]): 103% | viability at 48 h, 3 µM (in vitro; [2]): 107%

CCOC(=O)C1=C(C)N=c2sc(=Cc3ccc(OCC(=O)O)cc3)c(=O)n2C1c1cc(OC)c(OC)c(OC)c1 (centres unmarked) [MLS001178475-01]
AC50 ([1]; read-out: AC50): 1880 nM | viability at 48 h (in vitro; [2]): 98% | viability at 48 h, 1 µM (in vitro; [2]): 98%

Oc1ccc(Br)cc1-c1cc(-c2ccc(Cl)cc2)[nH]n1 [MLS000551526-01]
AC50 ([1]; read-out: AC50): 2660 nM | viability at 48 h, 1 µM (in vitro; [2]): 88% | viability at 48 h, 3 µM (in vitro; [2]): 87%

Cc1ccc(-n2c(C)cc(C(=O)OCC(=O)N(C)C3CCS(=O)(=O)C3)c2C)cc1 (centres unmarked) [MLS000098265-01]
AC50 ([1]; read-out: AC50): 4730 nM | viability at 66 h (in vitro; [2]): 101%

COc1ccc(C(CCN2CCN(c3ccccc3)CC2)c2c(O)cc(OC)cc2OC)cc1 (centres unmarked) [MLS000879538-01]
AC50 ([1]; read-out: AC50): 944 nM | viability at 48 h, 1 µM (in vitro; [2]): 95% | viability at 48 h, 3 µM (in vitro; [2]): 95%

C/C(Cl)=C/Cc1c(C)nc2c(ccc3ccccc32)c1O [MLS001211902-01]
AC50 ([1]; read-out: AC50): 841 nM | viability at 48 h, 1 µM (in vitro; [2]): 86% | viability at 48 h, 3 µM (in vitro; [2]): 92%

Cc1nc(N2CCC(C)CC2)c2c(C)c(C(=O)Nc3ccc(C(F)(F)F)cc3)sc2n1 [MLS000682669-01]
AC50 ([1]; read-out: AC50): 7500 nM | viability at 48 h, 1 µM (in vitro; [2]): 108% | viability at 48 h, 3 µM (in vitro; [2]): 99%

CC1Cc2nc(SCC(=O)Nc3ccc4c(c3)OCO4)n(-c3ccc(F)cc3)c(=O)c2S1 (centres unmarked) [MLS000685016-01]
AC50 ([1]; read-out: AC50): 2990 nM | viability at 48 h, 1 µM (in vitro; [2]): 97% | viability at 48 h, 3 µM (in vitro; [2]): 93%
